{
  "source": "patent US12194003B2",
  "about": "“Compositions for treating acne and dermatological conditions” (priority 2020, dated 2025)",
  "key": {"[1]": {"tested_on": "Primary human sebocytes", "test": "Sebocyte ATP metabolism luminescence assay (Celltiter-Glo), percent luminescence reduction", "assay_type": "cell-based", "conditions": "for % Luminescence Reduction (Repeat 1, 2, 3): niacinamide 0 μM", "experimental": "The ability of various combinations of ingredients to increase ATP metabolism is evaluated via a sebocyte assay according to the following protocol. Immortalized human sebaceous gland cell lines (sebocytes) are a well-established model for studying acne. Primary human sebocytes Batch #13140680) were obtained from Celprogen™ and grown according to manufacturer's instructions. The cells were seeded at a concentration of 5000 cells per cm^2 in a tissue culture treated flask and incubated at 37° C. in a humidified incubator in the presence of 5% CO2 (all subsequent incubations were subject to these conditions). At 60-80% confluency, cells were passaged by detaching cells using TrypLE™ Express (Sigma). Cells were seeded in a black 96-well half area plate at a concentration of 5000 cells per well and allowed to equilibrate overnight at 37° C.\n[…] Various concentrations of CBD (0 μM, 1 μM, 3 μM, 10 μM, 30 μM), niacinamide (0 μM, 4 μM, 10 μM, 20 μM, 40 μM), and urolithin A (0 μM, 3 μM, 10 μM, 30 μM, 100 μM) were evaluated in triplicate. The ability of each composition to increase ATP metabolism was determined using a luminescence assay (Celltiter-Glo™) according to manufacturer's instructions.\nTable 11 reports the percent luminescence reductions for cells treated with each composition compared to cells that are not administered a composition of the disclosure. This value is calculated using the formula: (1−(treatment luminescence/control luminescence))*100. The luminescence measurements in this assay are proportional to the number of metabolically active cells in a sample. Cells that are metabolically active (e.g., have functioning mitochondria) consume ATP and convert luciferin to oxyluciferin."}, "[2]": {"tested_on": "sebocyte", "test": "Sebocyte cell viability / cell death", "assay_type": "cell-based, human", "conditions": "L-ergothioneine 1 nM to 100 μM; FIG. 6", "experimental": "Sebocytes were incubated with compositions comprising CBD, niacinamide, urolithin A, or combination thereof. Various concentrations of CBD (0 μM, 1 μM, 3 μM, 10 μM, 30 μM), niacinamide (0 μM, 4 μM, 10 μM, 20 μM, 40 μM), and urolithin A (0 μM, 3 μM, 10 μM, 30 μM, 100 μM) were evaluated in triplicate. The ability of each composition to increase ATP metabolism was determined using a luminescence assay (Celltiter-Glo™) according to manufacturer's instructions.\nThese assays also tested the ability of the antioxidant L-ergothioneine at concentrations ranging from 1 nM to 100 μM to affect skin cell viability and influence mitochondrial function."}},
  "note": "Values joined by “and” are separate entries in the source; they are usually repeats but may differ in a detail not shown here. Equal entries are not always repeated. Where two headings read alike, the source gives them in different places.",
  "data": [
    {"smiles": "C=C(C)[C@@H]1CCC(C)=C[C@H]1c1c(O)cc(CCCCC)cc1O", "note": "[CBD, cannabidiol]", "values": [
      {"measurement": "% Luminescence Reduction (Repeat 1, 2, 3)", "setting": "[1]; CBD 1 μM, urolithin A 0 μM", "value": "5% and 9%"}
    ]},
    {"smiles": "C[N+](C)(C)[C@@H](Cc1c[nH]c(=S)[nH]1)C(=O)[O-]", "note": "[L-ergothioneine]", "values": [
      {"measurement": "ATP metabolism", "setting": "[1]; L-ergothioneine 1 nM to 100 μM, FIG. 6", "value": "retain viability and ATP metabolism"},
      {"measurement": "cell viability", "setting": "[2]", "value": "retain viability"}
    ]},
    {"smiles": "NC(=O)c1cccnc1", "note": "[Niacinamide, niacinamide]", "values": [
      {"measurement": "Luminescence Reduction of Niacinamide Alone", "setting": "[1]", "value": 3.0},
      {"measurement": "Luminescence Reduction of Niacinamide Alone", "setting": "[1]; Niacinamide 4.0 μM", "value": 3.0, "unit": "%"},
      {"measurement": "Luminescence Reduction of Niacinamide Alone", "setting": "[1]; Niacinamide 10.0 μM", "value": 35.0, "unit": "%"},
      {"measurement": "Luminescence Reduction of Niacinamide Alone", "setting": "[1]; Niacinamide 20.0 μM", "value": 52.0, "unit": "%"},
      {"measurement": "Luminescence Reduction of Niacinamide Alone", "setting": "[1]; Niacinamide 40.0 μM", "value": 90.7, "unit": "%"},
      {"measurement": "Luminescence Reduction of Niacinamide Alone", "setting": "[1]; niacinamide 4.0 μM", "value": 3.0},
      {"measurement": "Luminescence Reduction of Niacinamide Alone", "setting": "[1]; niacinamide 10.0 μM", "value": 35.0},
      {"measurement": "Luminescence Reduction of Niacinamide Alone", "setting": "[1]; niacinamide 20.0 μM", "value": 52.0},
      {"measurement": "Luminescence Reduction of Niacinamide Alone", "setting": "[1]; niacinamide 40.0 μM", "value": 90.7}
    ]},
    {"smiles": "O=c1oc2cc(O)ccc2c2ccc(O)cc12", "note": "[Urolithin A, 3,8-dihydroxybenzo[c]chromen-6-one]", "values": [
      {"measurement": "Luminescence Reduction of Urolithin A Alone", "setting": "[1]; 30 µM", "value": 16.7, "unit": "%"},
      {"measurement": "% Luminescence Reduction (Repeat 1, 2, 3)", "setting": "[1]; CBD 0 μM, urolithin A 30 μM", "value": "15% and 17% and 18%"},
      {"measurement": "% Luminescence Reduction (Repeat 1, 2, 3)", "setting": "[1]; CBD 0 μM, urolithin A 100 μM", "value": "25% and 35% and 27%"},
      {"measurement": "Luminescence Reduction of Urolithin A Alone", "setting": "[1]; Urolithin A 3.0 μM", "value": 18.7, "unit": "%"},
      {"measurement": "Luminescence Reduction of Urolithin A Alone", "setting": "[1]; Urolithin A 10.0 μM", "value": 13.3, "unit": "%"},
      {"measurement": "Luminescence Reduction of Urolithin A Alone", "setting": "[1]; Urolithin A 100.0 μM", "value": 29.0, "unit": "%"}
    ]}
  ]
}
